Experiment [1] deals with P-ERK (ERK phospho-T202/Y204) in A375 cells expressing V600E mutated BRAF. Nature of the experiment: HTRF assay for P-ERK determination in A375 cells (BRAF inhibition). In kind it is cell-based. As to conditions: Homo sapiens, A-375, P-ERK level, drug incubation 1 hour, DMSO = 100%, 10 μM Dabrafenib = 0%. The source says:
(§1) A375 is a cellular cancer model expressing V600E mutated BRAF and HCT116 a cellular cancer model expressing WT BRAF. First generation BRAF inhibitors such as e.g. dabrafenib induce a paradox effect on tumour cells in that they inhibit the growth of V600E mutated BRAF cells (such as e.g. A375), while they activate growth in WT BRAF cells (such as e.g. HCT 116). ERK 1,2 phosphorylation (terminal member of the phosphorylation cascade of the MAPK pathway) is hereafter reported as main readout for the activation status of the MAPK pathway. DMEM no-phenol red medium supplemented with L-glutamine was purchased from (Thermo Fisher Scientific). Fetal bovine serum (FBS) was purchased from VWR. Advanced ERK phospho-T202/Y204 kit—10,000 tests was purchased from Cisbio cat #64AERPEH. A375 (catalog #CRL-1619) and HCT116 (catalog #CCL-247) cells were originally obtained from American type Culture Collection (ATCC) and banked by the Roche repository. 384-Well microplates utilized were purchased from Greiner Bio-One, 384-well, (With Lid, HiBase, Low volume cat 784-080).
(§2) Prior to the assay, A375 and HCT116 cell lines are maintained in DMEM no-phenol red medium supplemented with 10% fetal bovine serum (FBS). Following compound treatment, P-ERK levels are determined by measuring FRET fluorescence signal induced by selective binding of 2 antibodies provided in the mentioned kit (Cisbio cat #64AERPEH) on ERK protein when phosphorylated at Thr202/Tyr204. Briefly, 8000 cells/well in 12 μl media/well are plated in the 384-well plate and left overnight in the incubator (at 37° C. with 5% CO2-humidified atmosphere), the following day the plate is treated in duplicate with test compounds, dabrafenib and PLX8394 (the latter two as controls) at the following final drug concentrations: 10 μM-3 μM 1 μM-0.3 μM-0.1 μM-0.03 μM-0, 01 μM-0.003 μM-0.001 μM, all wells are subjected to DMSO normalization and drug incubation occurs for 1 hour. Then, […] of a 4× lysis buffer supplied with the kit are added to the wells, the plate is then centrifuged for 30 second (3000 rpm) and incubated on a plate shaker for 1 h at rt.
(§3) At the end of the incubation 4 μL/well of advanced P-ERK antibody solution (prepared according to manufacturer's instruction) followed by 4 μL/well of criptate P-ERK antibody solution (prepared according to manufacturer's instruction) (Cisbio cat #64AERPEH) are added to test wells.
(§4) In order to allow proper data normalization control wells non drug treated reported in the following table are always included in each plate (according to manufacturer's instruction):
(§5) The plate is then centrifuged at 3000 rpm for 30 second, sealed to prevent evaporation and incubated overnight in the dark at room temperature.
(§6) The plate is then analyzed and fluorescence emission value collected through a Pherastast FSX (BMG Labtech) apparatus at […].
(§7) The obtained fluorescence values are processed according to the formula Ratio=[…]*10000 then the average of the ratio on the blank is subtracted to all values.
Data are normalized in the case of A375 cells (BRAF inhibition) considering the average of the ratio (blank subtracted) derived by DMSO only treated cells as 100% and by considering the average of the ratio (blank subtracted) derived by 10 μM Dabrafenib treated cells as 0%. Mean of the normalized points are fitted with sigmoidal curve and IC50 determined.

The target in another experiment is BRAF (wt) (Homo sapiens, UniProt P15056). Nature of the experiment: KD BRAF (wt) (Table 1). In kind it is binding.
A further experiment has as its target BRAF (V600E) (Homo sapiens, UniProt P15056, V600E). Nature of the experiment: KD BRAF (V600E) (Table 1). Format: binding.
For experiment [2], the system named is P-ERK (ERK phospho-T202/Y204) in HCT116 cells expressing WT BRAF. The experiment is described as follows: HTRF assay for P-ERK determination in HCT116 cells (BRAF activation). In kind it is cell-based. As to conditions: Homo sapiens, HCT-116, drug incubation 1 hour, concentration giving 50% of the maximum activation achieved by Dabrafenib.
From the text: as §1, §2, §3, §4, §5, §6, §7
Data are normalized in the case of HCT116 cells (BRAF activation) considering the average of the ratio (blank subtracted) derived by DMSO only treated cells as 0% and by considering the average of the ratio (blank subtracted) derived by Dabrafenib treated cells at the concentration which provides the highest signal as 100%. Individual points are fitted with either sigmoidal or bell shape curves. The EC50 is the concentration at which activation equal to 50% of the maximum activation achieved by Dabrafenib is obtained.
In general terms: TR-FRET usually uses a lanthanide donor and a delayed reading to cut background.

Structures can show the parent of a compound that is named as a salt.

Chain of BRAF (wt) (P15056 whole entry): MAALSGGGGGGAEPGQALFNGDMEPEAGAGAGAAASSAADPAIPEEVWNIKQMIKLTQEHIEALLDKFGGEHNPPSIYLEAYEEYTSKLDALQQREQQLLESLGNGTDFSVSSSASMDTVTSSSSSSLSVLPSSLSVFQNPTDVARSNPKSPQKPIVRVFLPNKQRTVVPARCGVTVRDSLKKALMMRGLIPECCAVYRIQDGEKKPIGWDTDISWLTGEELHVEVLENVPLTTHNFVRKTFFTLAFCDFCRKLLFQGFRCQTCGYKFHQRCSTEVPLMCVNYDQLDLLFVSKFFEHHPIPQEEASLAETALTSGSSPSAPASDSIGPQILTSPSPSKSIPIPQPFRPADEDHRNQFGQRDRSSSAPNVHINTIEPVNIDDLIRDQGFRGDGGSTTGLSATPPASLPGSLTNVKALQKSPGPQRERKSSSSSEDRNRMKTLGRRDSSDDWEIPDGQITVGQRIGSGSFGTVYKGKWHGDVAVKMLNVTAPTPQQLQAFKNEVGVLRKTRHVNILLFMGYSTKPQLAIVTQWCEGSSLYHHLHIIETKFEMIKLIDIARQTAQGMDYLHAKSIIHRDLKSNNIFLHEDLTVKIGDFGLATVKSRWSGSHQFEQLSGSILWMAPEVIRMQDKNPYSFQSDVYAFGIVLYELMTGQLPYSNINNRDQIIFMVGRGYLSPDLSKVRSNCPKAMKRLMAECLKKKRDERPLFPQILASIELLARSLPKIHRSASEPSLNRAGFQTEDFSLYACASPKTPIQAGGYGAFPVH
Chain of BRAF (V600E) (P15056 whole entry V600E): as the sequence (P15056 whole entry) above, with V600E counted along it

Usually IC50 stands for the point on the concentration scale where inhibition reaches its midpoint. The low end stands for higher potency, the high end for lower potency. In general, Kd refers to the concentration at which binding is half-saturated. A lower Kd goes with tighter binding. By EC50 is commonly meant the concentration that produces a half-maximal response. The compound `CCN(C)S(=O)(=O)Nc1cccc(Nc2ccc3ncn(CC(=O)NCCOC)c(=O)c3c2)c1C#N` [Example 31, 2-[6-[2-cyano-3-[[ethyl(methyl)sulfamoyl]amino]anilino]-4-oxo-quinazolin-3-yl]-N-(2-methoxyethyl)acetamide] gave a half-inhibitory concentration (IC50) in experiment [1] not below 10000 nM. The Kd came out at 137 nM on BRAF (wt) and 403 nM on BRAF (V600E). The EC50 in experiment [2] is not below 10000 nM.

With `CCN(C)S(=O)(=O)Nc1cccc(Nc2ccc3ncn(CCOCCOCCN)c(=O)c3c2)c1C#N` [Example 38, 3-[2-[2-(2-aminoethoxy)ethoxy]ethyl]-6-[2-cyano-3-[[ethyl(methyl)sulfamoyl]amino]anilino]-4-oxo-quinazoline hydrochloride], the IC50 in experiment [1] stood at 5740 nM. For the same compound, the Kd at BRAF (wt) was determined as 174 nM; at BRAF (V600E), 443 nM. The compound also showed an EC50 in experiment [2] not below 10000 nM.

`N#Cc1c(Nc2ccc3ncn(CCCC(=O)O)c(=O)c3c2)cccc1NS(=O)(=O)N1CC[C@@H](F)C1` [Example 39, 4-[6-[2-cyano-3-[[(3R)-3-fluoropyrrolidin-1-yl]sulfonylamino]anilino]-4-oxo-quinazolin-3-yl]butanoic acid] gave an IC50 in experiment [1] not below 10000 nM. Also, the Kd at BRAF (wt) was determined as 11.6 nM; at BRAF (V600E), 48.3 nM. The EC50 in experiment [2] was not below 10000 nM.

Take `CC(C)(C)OC(=O)N1CCN(CCn2cnc3ccc(Oc4c(F)ccc(NS(=O)(=O)C5CCCC5)c4C#N)cc3c2=O)CC1` [Example 25, tert-butyl 4-[2-[6-[2-cyano-3-(cyclopentylsulfonylamino)-6-fluoro-phenoxy]-4-oxo-quinazolin-3-yl]ethyl]piperazine-1-carboxylate]: the half-maximal inhibitory concentration (IC50) in experiment [1] was 7.63 nM. The results for the dissociation constant Kd on BRAF (wt) and on BRAF (V600E) were 4.14 nM and 7.06 nM, respectively. This compound displayed an EC50 in experiment [2] of 802 nM.

In turn, `CC(=O)N(C)CCCn1cnc2ccc(Oc3c(F)ccc(NS(=O)(=O)C4CCCC4)c3C#N)cc2c1=O` [Example 24, N-[3-[6-[2-cyano-3-(cyclopentylsulfonylamino)-6-fluoro-phenoxy]-4-oxo-quinazolin-3-yl]propyl]-N-methyl-acetamide] gave an IC50 in experiment [1] of 50.4 nM. For the same compound, the equilibrium dissociation constant (Kd) at BRAF (wt) worked out at 0.42 nM; at BRAF (V600E), 0.76 nM. Moreover, the EC50 in experiment [2] was not below 10000 nM.

As for `CCN(C)S(=O)(=O)Nc1ccc(F)c(Oc2ccc3ncn(CCCNC(=O)OC(C)(C)C)c(=O)c3c2)c1C#N` [Example 6, tert-butyl N-[3-[6-[2-cyano-3-[[ethyl(methyl)sulfamoyl]amino]-6-fluoro-phenoxy]-4-oxo-quinazolin-3-yl]propyl]carbamate], it took 41.6 nM to reach half-maximal inhibition in experiment [1] (IC50). The equilibrium dissociation constant (Kd) is 6.36 nM at BRAF (wt) and 19.4 nM on BRAF (V600E). In experiment [2], this compound displayed a concentration for a half-maximal effect (EC50) not below 10000 nM.

In turn, `CCN(C)S(=O)(=O)Nc1cccc(Nc2ccc3ncn(CC4CCN(C(C)=O)CC4)c(=O)c3c2)c1C#N` [Example 33, 3-[(1-acetyl-4-piperidyl)methyl]-6-[2-cyano-3-[[ethyl(methyl)sulfamoyl]amino]anilino]-4-oxo-quinazoline] displayed an IC50 in experiment [1] of 576 nM. In addition, the equilibrium dissociation constant (Kd) on BRAF (wt) was found to be 45.6 nM; on BRAF (V600E), 92.9 nM. Besides, in experiment [2], the EC50 is not below 10000 nM.

In turn, `CC(C)(C)OC(=O)N1CCC(CCn2cnc3ccc(Oc4c(F)ccc(NS(=O)(=O)C5CCCCC5)c4C#N)cc3c2=O)CC1` [Example 14, tert-butyl 4-[2-[6-[2-cyano-3-(cyclohexylsulfonylamino)-6-fluoro-phenoxy]-4-oxo-quinazolin-3-yl]ethyl]piperidine-1-carboxylate] returned a 50% inhibitory concentration (IC50) in experiment [1] of 254 nM. Further, the Kd at BRAF (wt) stood at 54.3 nM; on BRAF (V600E), 114 nM. The compound also came in with an EC50 in experiment [2] of 4850 nM.

Turning to `CC(C)(C)OC(=O)NCCCn1cnc2ccc(Oc3c(F)ccc(NS(=O)(=O)C4CCCCC4)c3C#N)cc2c1=O` [Example 12, tert-butyl N-[3-[6-[2-cyano-3-(cyclohexylsulfonylamino)-6-fluoro-phenoxy]-4-oxo-quinazolin-3-yl]propyl]carbamate], inhibition in experiment [1] was half-maximal at 55.9 nM (IC50). Also, the Kd on BRAF (wt) amounted to 27.6 nM; at BRAF (V600E), 59.2 nM. Moreover, the midpoint of the response in experiment [2], the EC50, lay at 4930 nM.

In turn, `CN(Cc1ccc(CCCn2cnc3ccc(Oc4c(F)ccc(NS(=O)(=O)C5CCCC5)c4C#N)cc3c2=O)cc1)C(=O)OC(C)(C)C` [Example 28, tert-butyl N-[[4-[3-[6-[2-cyano-3-(cyclopentylsulfonylamino)-6-fluoro-phenoxy]-4-oxo-quinazolin-3-yl]propyl]phenyl]methyl]-N-methyl-carbamate] came in with a half-inhibitory concentration (IC50) in experiment [1] of 144 nM. In addition, the Kd at BRAF (wt) was determined as 19.6 nM; at BRAF (V600E), 33.7 nM. The compound also had a concentration for a half-maximal effect (EC50) in experiment [2] of 836 nM.

For the compound `CC(C)(C)OC(=O)NCCCn1cnc2ccc(Oc3c(F)ccc(NS(=O)(=O)C4CCCC4)c3C#N)cc2c1=O` [Example 8, tert-butyl N-[3-[6-[2-cyano-3-(cyclopentylsulfonylamino)-6-fluoro-phenoxy]-4-oxo-quinazolin-3-yl]propyl]carbamate], the IC50 in experiment [1] was determined as 33.9 nM. The Kd is 4.86 nM at BRAF (wt) and 7.83 nM at BRAF (V600E). Also, the EC50 in experiment [2] was 2430 nM.

In experiment [1], `CC(C)(C)OC(=O)N1CCCC(CCn2cnc3ccc(Oc4c(F)ccc(NS(=O)(=O)N5CCCC5)c4C#N)cc3c2=O)C1` (stereo not drawn) [Example 23, tert-butyl 3-[2-[6-[2-cyano-6-fluoro-3-(pyrrolidin-1-ylsulfonylamino)phenoxy]-4-oxo-quinazolin-3-yl]ethyl]piperidine-1-carboxylate] gave a concentration for half-maximal inhibition (IC50) of 49.7 nM. Moreover, the Kd amounted to 9.23 nM at BRAF (wt) and 10.2 nM on BRAF (V600E). Further, in experiment [2], the EC50 was determined as 2300 nM.

`CN(C1CC1)S(=O)(=O)Nc1cccc(Nc2ccc3ncn(CCCC(=O)OC(C)(C)C)c(=O)c3c2)c1C#N` [Example 42, tert-butyl 4-[6-[2-cyano-3-[[cyclopropyl(methyl)sulfamoyl]amino]anilino]-4-oxo-quinazolin-3-yl]butanoate] gave a half-inhibitory concentration (IC50) in experiment [1] of 162 nM. In addition, the equilibrium dissociation constant (Kd) was 79.2 nM at BRAF (wt) and 203 nM at BRAF (V600E). Further, the EC50 in experiment [2] came to 6200 nM.

For `N#Cc1c(Nc2ccc3ncn(CCCc4ccccc4)c(=O)c3c2)cccc1NS(=O)(=O)N1CC[C@@H](F)C1` [Example 44, (3R)—N-[2-cyano-3-[[4-oxo-3-(3-phenylpropyl)quinazolin-6-yl]amino]phenyl]-3-fluoro-pyrrolidine-1-sulfonamide], the half-maximal inhibitory concentration (IC50) in experiment [1] came to 18.2 nM. The dissociation constant (Kd) on BRAF (wt) was 15.1 nM; at BRAF (V600E) it was 25.6 nM. Further, in experiment [2], a half-maximal effect (EC50) was put at 2070 nM.

Regarding `CCN(C)S(=O)(=O)Nc1cccc(Nc2ccc3ncn(CC4CCN(C(=O)OC(C)(C)C)CC4)c(=O)c3c2)c1C#N` [Example 32, tert-butyl 4-[[6-[2-cyano-3-[[ethyl(methyl)sulfamoyl]amino]anilino]-4-oxo-quinazolin-3-yl]methyl]piperidine-1-carboxylate], inhibition in experiment [1] was half-maximal at 428 nM (IC50). Moreover, the Kd amounted to 210 nM on BRAF (wt) and 813 nM on BRAF (V600E). The compound further had an EC50 in experiment [2] not below 10000 nM.

The record behind these values is US12570615B2, “Quinazolinone derivatives” (Hoffmann-La Roche Inc., priority 2021, dated 2026).
